Experimental data: ChEMBL document CHEMBL1201862, “PubChem BioAssay data set” (2004)
Active and inactive are the calls of the source.

Assays:
[1] = P. falciparum Dd2 growth inhibitors, dose response, SYBR Green, dry powder samples, set 4 (AID 1159572); type: functional, cell-based
[2] = biological target: 1-phosphatidylinositol 4,5-bisphosphate phosphodiesterase beta-3 (Homo sapiens, UniProt Q01970); test: Fluorescence-based biochemical high throughput dose response assay to identify inhibitors of phospholipase C isozymes (PLC-B3).
[3] = biological target: T1, Rac GTPase-activating protein 1 (Homo sapiens, UniProt Q9H0H5); test: MgcRacGAP GTPase-activating activity inhibitors, confirmation, biochemical, ADP Hunter fluorescence, primary and confirmatory (AID 624330); type: functional
T1 sequence (Q9H0H5 whole entry): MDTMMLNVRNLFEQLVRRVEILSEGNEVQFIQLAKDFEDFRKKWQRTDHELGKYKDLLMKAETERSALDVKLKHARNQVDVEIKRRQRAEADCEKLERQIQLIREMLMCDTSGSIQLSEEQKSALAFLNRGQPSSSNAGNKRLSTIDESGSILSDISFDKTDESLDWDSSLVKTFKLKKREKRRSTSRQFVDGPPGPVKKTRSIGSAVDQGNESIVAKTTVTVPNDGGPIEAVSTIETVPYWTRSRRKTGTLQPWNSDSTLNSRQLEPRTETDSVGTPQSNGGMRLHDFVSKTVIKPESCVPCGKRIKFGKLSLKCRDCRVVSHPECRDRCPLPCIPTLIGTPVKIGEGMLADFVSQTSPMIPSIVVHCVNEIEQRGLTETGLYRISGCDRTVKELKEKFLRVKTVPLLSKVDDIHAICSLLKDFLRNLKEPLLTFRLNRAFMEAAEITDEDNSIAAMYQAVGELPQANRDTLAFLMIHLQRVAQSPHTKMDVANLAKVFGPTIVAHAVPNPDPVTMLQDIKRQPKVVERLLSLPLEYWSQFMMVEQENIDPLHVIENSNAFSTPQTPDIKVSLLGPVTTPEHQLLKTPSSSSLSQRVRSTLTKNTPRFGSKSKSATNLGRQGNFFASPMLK

[4] = biological target: Glutathione-S-transferase (Schistosoma japonicum, UniProt Q26513); test: biotin-GST/anti-GST TR-FRET signal inhibitors, dose response, artefact control for Vif-APOBEC3G degradation inhibitor project, biochemical (AID 1117362); type: functional
[5] = biological target: 1-phosphatidylinositol 4,5-bisphosphate phosphodiesterase gamma-1 (Homo sapiens, UniProt P19174); test: Counterscreen for inhibitors of phospholipase C isozymes (PLC-B3): Fluorescence-based biochemical high throughput dose response assay to identify inhibitors of phospholipase C isozymes (PLC-gamma1).
[6] = biological target: Genome polyprotein (dengue virus type 2, UniProt P29990); test: Dengue-2 NS5 methyltransferase inhibitors, primary screen, biochemical, confirmation dose response (AID 588689); type: functional
[7] = HeLa 4N DNA content increase, dose response, cell-based, IC50 (AID 1117351); type: functional
[8] = cytotoxicity toward HCT116 cells – cell-based, CellTiter-Glo luminescence, IC50, dose response (AID 1117332); type: functional; conditions: HCT-116
[9] = SNU-C1 cell viability reduction, dose response, CellTiter-Glo luminescence (AID 1117323); type: functional, cell-based
[10] = cytotoxicity toward HT-29 cells – cell-based, CellTiter-Glo luminescence, IC50, dose response (AID 1117330); type: functional
[11] = Concentration-dependent survival of SW480 colon cancer line, luminescence detection with CellTiter-Glo, half-maximal inhibitory concentration (AID 1117338); type: functional
[12] = CellTiter-Glo luminescent dose response of DLD-1 viability loss (AID 1117352); type: functional
[13] = RKO cell viability reduction, dose response, CellTiter-Glo luminescence (AID 1117322); type: functional
[14] = HCT116 cell viability decrease, GSK3B pretreatment – CellTiter-Glo, IC50, dose response (AID 1117339); type: functional; conditions: HCT-116
[15] = HeLa 2N DNA content increase, dose response, cell-based, IC50 (AID 1117349); type: functional

1-phosphatidylinositol 4,5-bisphosphate phosphodiesterase beta-3, sequence (Q01970 whole entry): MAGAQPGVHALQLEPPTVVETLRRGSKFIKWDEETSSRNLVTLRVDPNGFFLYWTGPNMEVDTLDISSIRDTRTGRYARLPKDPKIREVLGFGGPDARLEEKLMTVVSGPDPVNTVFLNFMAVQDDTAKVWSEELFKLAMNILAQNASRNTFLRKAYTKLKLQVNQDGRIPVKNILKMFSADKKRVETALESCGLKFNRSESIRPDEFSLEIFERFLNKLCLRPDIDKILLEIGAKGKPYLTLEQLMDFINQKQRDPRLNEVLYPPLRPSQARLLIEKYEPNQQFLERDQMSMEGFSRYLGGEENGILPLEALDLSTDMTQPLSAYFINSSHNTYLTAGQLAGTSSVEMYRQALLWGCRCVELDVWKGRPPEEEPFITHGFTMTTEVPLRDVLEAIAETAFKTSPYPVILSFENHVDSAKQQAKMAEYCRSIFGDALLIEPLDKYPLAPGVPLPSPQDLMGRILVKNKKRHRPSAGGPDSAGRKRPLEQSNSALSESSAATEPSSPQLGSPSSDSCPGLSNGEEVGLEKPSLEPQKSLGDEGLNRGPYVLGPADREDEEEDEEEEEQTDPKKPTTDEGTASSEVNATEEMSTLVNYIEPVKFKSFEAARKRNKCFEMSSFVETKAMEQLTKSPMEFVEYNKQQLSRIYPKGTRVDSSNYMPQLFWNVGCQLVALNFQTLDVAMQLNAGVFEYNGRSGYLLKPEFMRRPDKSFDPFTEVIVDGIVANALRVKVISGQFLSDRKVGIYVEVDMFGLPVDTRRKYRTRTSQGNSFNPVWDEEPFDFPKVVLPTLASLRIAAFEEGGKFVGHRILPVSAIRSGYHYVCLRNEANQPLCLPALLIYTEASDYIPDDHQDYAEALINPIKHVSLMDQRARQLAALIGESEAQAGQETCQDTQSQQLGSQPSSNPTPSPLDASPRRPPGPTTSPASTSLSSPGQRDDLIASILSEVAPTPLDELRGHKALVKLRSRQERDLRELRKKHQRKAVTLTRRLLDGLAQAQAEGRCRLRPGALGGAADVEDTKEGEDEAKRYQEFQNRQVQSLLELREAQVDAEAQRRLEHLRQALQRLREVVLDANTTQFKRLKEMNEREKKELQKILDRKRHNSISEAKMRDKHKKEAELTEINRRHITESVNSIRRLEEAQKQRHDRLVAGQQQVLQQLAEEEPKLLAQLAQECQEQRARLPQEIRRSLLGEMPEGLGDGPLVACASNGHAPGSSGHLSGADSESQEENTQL
Genome polyprotein, sequence (P29990 2492-3391 limits assumed): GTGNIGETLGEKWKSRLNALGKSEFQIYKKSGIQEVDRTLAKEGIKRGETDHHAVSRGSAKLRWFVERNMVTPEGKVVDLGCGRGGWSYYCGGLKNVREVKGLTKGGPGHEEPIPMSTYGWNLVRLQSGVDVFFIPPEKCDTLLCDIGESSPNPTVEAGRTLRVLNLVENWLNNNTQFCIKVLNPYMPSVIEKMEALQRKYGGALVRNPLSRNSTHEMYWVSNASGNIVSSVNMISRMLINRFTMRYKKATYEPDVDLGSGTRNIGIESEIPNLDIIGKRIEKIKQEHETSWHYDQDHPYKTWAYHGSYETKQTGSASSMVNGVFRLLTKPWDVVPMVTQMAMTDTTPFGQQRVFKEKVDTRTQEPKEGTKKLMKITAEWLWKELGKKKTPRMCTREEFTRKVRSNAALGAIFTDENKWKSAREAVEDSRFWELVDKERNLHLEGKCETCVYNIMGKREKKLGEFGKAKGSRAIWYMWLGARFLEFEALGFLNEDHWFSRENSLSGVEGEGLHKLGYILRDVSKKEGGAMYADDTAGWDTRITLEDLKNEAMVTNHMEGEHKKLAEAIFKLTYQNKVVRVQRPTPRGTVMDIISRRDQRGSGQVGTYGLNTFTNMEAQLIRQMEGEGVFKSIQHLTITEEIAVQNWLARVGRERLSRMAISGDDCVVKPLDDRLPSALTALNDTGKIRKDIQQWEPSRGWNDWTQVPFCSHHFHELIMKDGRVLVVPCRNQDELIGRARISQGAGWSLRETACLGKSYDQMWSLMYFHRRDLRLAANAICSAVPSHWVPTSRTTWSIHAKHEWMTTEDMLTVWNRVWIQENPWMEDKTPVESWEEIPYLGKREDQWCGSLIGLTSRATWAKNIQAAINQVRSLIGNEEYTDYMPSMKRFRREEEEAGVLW
1-phosphatidylinositol 4,5-bisphosphate phosphodiesterase gamma-1, sequence (P19174 whole entry): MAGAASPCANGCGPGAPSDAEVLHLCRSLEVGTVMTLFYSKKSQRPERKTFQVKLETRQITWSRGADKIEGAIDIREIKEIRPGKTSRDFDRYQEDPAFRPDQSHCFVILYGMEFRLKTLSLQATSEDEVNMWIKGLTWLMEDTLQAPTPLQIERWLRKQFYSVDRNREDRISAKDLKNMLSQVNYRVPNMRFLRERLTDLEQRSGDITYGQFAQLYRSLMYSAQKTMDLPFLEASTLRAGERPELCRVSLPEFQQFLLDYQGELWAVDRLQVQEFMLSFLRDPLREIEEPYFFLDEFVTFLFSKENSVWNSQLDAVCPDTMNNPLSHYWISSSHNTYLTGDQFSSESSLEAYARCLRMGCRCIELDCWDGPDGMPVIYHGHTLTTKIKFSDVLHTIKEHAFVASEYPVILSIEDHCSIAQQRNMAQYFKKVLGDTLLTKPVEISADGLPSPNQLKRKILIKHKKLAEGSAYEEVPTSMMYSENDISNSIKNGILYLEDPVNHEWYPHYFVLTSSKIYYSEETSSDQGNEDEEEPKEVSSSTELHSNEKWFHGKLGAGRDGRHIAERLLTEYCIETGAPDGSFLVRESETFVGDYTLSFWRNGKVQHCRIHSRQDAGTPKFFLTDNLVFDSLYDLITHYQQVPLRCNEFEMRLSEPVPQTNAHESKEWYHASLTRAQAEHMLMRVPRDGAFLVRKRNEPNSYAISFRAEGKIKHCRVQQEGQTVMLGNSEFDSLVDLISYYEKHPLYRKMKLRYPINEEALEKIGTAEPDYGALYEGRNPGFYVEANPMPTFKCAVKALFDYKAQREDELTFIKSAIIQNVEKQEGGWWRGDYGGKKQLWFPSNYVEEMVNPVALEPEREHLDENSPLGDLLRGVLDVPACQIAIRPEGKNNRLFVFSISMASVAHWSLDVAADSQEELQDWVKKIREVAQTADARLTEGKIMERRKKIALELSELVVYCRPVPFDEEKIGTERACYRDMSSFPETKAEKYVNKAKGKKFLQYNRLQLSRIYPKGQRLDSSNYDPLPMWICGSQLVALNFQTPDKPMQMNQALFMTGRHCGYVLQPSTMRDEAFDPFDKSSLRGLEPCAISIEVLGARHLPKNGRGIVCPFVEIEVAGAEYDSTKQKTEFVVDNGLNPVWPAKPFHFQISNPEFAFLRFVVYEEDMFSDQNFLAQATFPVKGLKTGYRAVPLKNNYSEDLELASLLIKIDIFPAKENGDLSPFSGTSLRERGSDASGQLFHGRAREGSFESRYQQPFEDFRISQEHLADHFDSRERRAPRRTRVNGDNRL
Glutathione-S-transferase, sequence (Q26513 whole entry): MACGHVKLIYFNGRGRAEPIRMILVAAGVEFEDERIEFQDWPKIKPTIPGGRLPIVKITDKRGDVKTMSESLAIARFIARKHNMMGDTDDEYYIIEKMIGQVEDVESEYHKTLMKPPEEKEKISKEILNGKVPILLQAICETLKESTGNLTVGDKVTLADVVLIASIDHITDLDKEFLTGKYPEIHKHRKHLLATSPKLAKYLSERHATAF

COc1ccc2c3c([nH]c2c1)[C@H](CO)N(C(C)=O)CC31CCN(S(=O)(=O)c2ccccc2)CC1
AC50 [1]: 9.86 µM (active)

O=C(O)c1cccc2cccc(-c3c4ccc(=O)c(O)c-4oc4c(O)c(O)ccc34)c12
IC50 [2]: > 122 µM (inactive) | IC50 [3]: 13.3 µM (active) | IC50 [4]: > 100 µM (active) | IC50 [5]: > 122 µM (inactive) | IC50 [6]: 14.6 µM (active)

CC(C)c1c(C(=O)Nc2ccccc2)c(-c2ccccc2)c(-c2ccc(F)cc2)n1CC[C@@H](O)C[C@@H](O)CC(=O)O [ATORVASTATIN CALCIUM]
IC50 [7]: > 10 µM (inactive) | IC50 [8]: > 20 µM (inactive) | IC50 [9]: > 20 µM (inactive) | IC50 [10]: > 20 µM (inactive) | IC50 [11]: > 20 µM (inactive) | IC50 [12]: > 20 µM (inactive) | IC50 [13]: > 20 µM (inactive) | IC50 [14]: 4.79 µM (active) | IC50 [15]: > 10 µM (inactive)
